Key:
CBF1-responsive promoter = assay: Dual luciferase assay of CSL-dependent transcription (Example 3); assay type: cell-based, mouse; conditions: NIH 3T3 cells and N1IC NIH 3T3 cells expressing the ligand
Protocol: Dual Luciferase Assay. CSL-dependent transcription was quantitated as previously described (Small et al., 2001, J. Biol. Chem. 276:32022-32030; Small et al., 2003, J. Biol. Chem. 278:16405-16413). Briefly, approximately 5×10^4 cells representing insert-less vector control, sDl1, sJ1, dominant-negative Notch1 (dnN1), dominant-negative Notch2 (dnN2) (Small et al., 2001, J. Biol. Chem. 276:32022-32030), sDl1/dnSrc and sJ1/dnSrc stable NIH 3T3 cell transfectants were plated on 12-well plastic plates (Falcon) coated with fibronectin (10 μg/cm^2). The cells were transiently transfected at 60% confluence with 500 ng of the CBF1-responsive Luciferase construct (Small et al., 2001, J. Biol. Chem. 276:32022-32030) and 100 ng of a Renilla SV40 construct (Promega) which was utilized as an internal control for transfection efficiency. Gene Juice (Novagen) was used as a transfection reagent. Some of the samples also contained 200 ng of a DNA construct encoding the truncated intracellular constitutively active form of Notch1 (N1IC) (Small et al., 2001, J. Biol. Chem. 276:32022-32030). […] Individual assays were performed in triplicate and the Luciferase/Renilla activity was measured using Dual-Luciferase Reporter Assay System (Promega) 48 hrs following the transient transfection.

[1] = system: NIH 3T3 cell transfectants; assay: Anchorage-dependent cell growth assay; assay type: cell-based, mouse; conditions: stable NIH 3T3 cell transfectants, 10% BCS
Protocol: Anchorage-Dependent and -Independent Cell Growth Assays. Approximately 3×10^4 cells were plated on fibronectin (10 μg/cm^2)-coated in 12-well cell culture dishes (Falcon) in DMEM containing 10% BCS (v/v) (Hyclone). Three wells of the individual NIH 3T3 cell transfectants were harvested every third day and cell number was quantitated using a hemocytometer. Anchorage-independent cell growth was evaluated by plating in duplicate approximately 1.7×10^3 cells in DMEM containing 0.5% (w/v) agar (Sigma) 10% (v/v) BCS into 5 cm plastic dishes (Falcon) as previously described (Small et al., 2003, J. Biol. Chem. 278:16405-16413).

[2] = system: CSL1-dependent transcription; assay: Dual luciferase reporter assay of CSL1-dependent transcription (Example 2); assay type: cell-based, murine; conditions: for CSL1-dependent transcription, level relative to control: thrombin on full-length Jagged1 NIH 3T3 transfectants, sJ1 expression, 10 ng/ml exogenous FGF1
Protocol: Insert-less vector control and sJ1 NIH 3T3 cell transfectants (approximately 3×10^4) were plated on fibronectin-coated (10 μg/cm^2) cell culture dishes and the cells were transiently transfected at approximately 50% confluency with 500 ng of a luciferase construct containing four tandem copies of the CBF1 response element (Small et al., 2001, J. Biol. Chem. 276:32022-32030).
Cotransfection with 100 ng of the TK Renilla (Promega) construct was used as an internal control for transfection efficiency using Fugene 6 (Roche), according to the manufacturer's instructions. Cells were treated with or without 10, […] hours after transfection, harvested 48 hours after the transfection and luciferase/renilla activity measured using the Dual Luciferase Reporter Assay System (Promega). Each experiment was performed in triplicate.

[3] = system: FGF1R136K NIH 3T3 cell transfectants; assay: Thrombin stimulation and immunoblot analysis of FGF1 release; assay type: cell-based, murine
Protocol: FGF1R136K NIH 3T3 cell transfectants or adenovirally-transduced NIH 3T3 cells were washed with DMEM containing 5 units/ml of heparin (Sigma) and stimulated with either 10 μg/ml α-thrombin (a gift from Dr. J. Fenton) or 5 μM TRAP (Sigma) at 37° C. for different periods of time. Control cells were incubated in the absence of thrombin for the same time period. Conditioned media were collected at each time period, filtered, and concentrated as previously described (Jackson et al., 1992, Proc. Natl. Acad. Sci. U.S.A. 89:10691-10695). The concentrates were resolved by SDS-PAGE and subjected to immunoblot analysis using a rabbit antibody against either FGF1 (Jackson et al., 1992), Syt1 (LaVallee et al., 1998, J. Biol. Chem. 273:22217-22223) or Myc (Oncogene). The heat shock-induced release of FGF1 was performed at 42° C. for 110 minutes as previously described (Jackson et al., 1992). Cell viability was assessed by measuring lactate dehydrogenase activity in the conditioned medium after filtration as disclosed previously elsewhere herein (published as Mandinova et al., 2003, J. Cell Sci. 116:2687-2696), and total cell lysates were obtained and processed for immunoblot analysis as described (Landriscina et al., 2001, J. Biol. Chem. 276:22544-22552).
Stable FGF1R136K NIH 3T3 cell transfectants were pre-incubated with either 100 ng/ml pertussis toxin (PTX) or 10 ng/ml cholera toxin (CT) for 60 minutes at 37° C. in DMEM containing 10% BCS. After pre-incubation, the cells were washed, stimulated with 10 μg/ml of thrombin for different periods of time in the presence of either 100 ng/ml PTX or 10 ng/ml CT, conditioned medium collected, and subjected to immunoblot analysis as described above.

[4] = system: NIH 3T3 cell transfectants; assay: Immunofluorescence microscopy of actin stress fibers and focal adhesion sites; assay type: cell-based, mouse; conditions: stable NIH 3T3 cell transfectants expressing the ligand
Protocol: Immunofluorescence Microscopy. Cells were plated on glass coverslips and fixed with 4% (v/v) paraformaldehyde. Actin stress fibers were visualized by FITC-conjugated phalloidin (Sigma), a monoclonal anti-vinculin antibody (Sigma) was used to visualize focal adhesion sites, and a monoclonal anti-β-catenin antibody (BD Transduction Laboratories) and a monoclonal anti-pan cadherin antibody (Sigma) were both used to visualize cell-cell adhesions. Immunofluorescent staining and confocal microscopy were performed as previously described (Small et al., 2001, J. Biol. Chem. 276:32022-32030).

Molecule: sJ1: Soluble Jagged1, amino acid residues about 1 to 1067 (SEQ ID NO:3) of full-length human Jagged1
- transactivation of the CBF1-responsive promoter (CBF1-responsive promoter): inhibited the transactivation of the CBF1-responsive promoter
- growth kinetics at high cell density [1]: impaired contact inhibition of growth
- CSL1-dependent transcription, level relative to control [2]: approximately 25 % of the control level
- time after which detectable extracellular FGF-1 was present ([3]; 37° C.): 5 min
- F-actin stress fibers and focal adhesion sites [4]: significantly reduced actin stress fibers and focal adhesion sites

Molecule: thrombin
- effect on Notch-dependent CSL1 activity ([2]; full-length Jagged1 NIH 3T3 cell transfectants): able to reduce the level of Notch-dependent CSL1 activity in a dose-dependent manner
- CSL1-dependent transcription, level relative to control [2]: approximately 75 % of the control level
- export of FGF2 [3]: unable to induce the export of FGF2
- thrombin concentration giving maximal release of FGF1R136K ([3]; 37° C.): 10 µg/mL
- time after which detectable extracellular FGF-1 was present ([3]; 37° C.): 5 min
- release of FGF1R136K into the extracellular compartment ([3]; 37° C., 10 μg/ml α-thrombin or 5 μM TRAP): rapid and sustained appearance of the FGF1R136K mutant in the extracellular compartment
- release of FGF1R136K from cells transduced with constitutively active Notch1 ([3]; caN1-transduced FGF1R136K NIH 3T3 cells): unable to initiate the release of the FGF1R136K mutant
- release of S100A13 ([3]; cells co-expressing S100A13 and FGF1R136K, 37° C.): presence of S100A13 in the extracellular compartment with kinetics similar to that observed with FGF1
- release of p40 Syt1 ([3]; p40 Syt1-transduced FGF1R136K NIH 3T3 cells): presence of p40 Syt1in the extracellular compartment

B1: sDl1: soluble non-transmembrane form (extracellular domain) of the Notch ligand Delta1 (protein)
chain: QVWSSGVFELKLQEFVNKKGLLGNRNCCRGGAGPPPCACRTFFRVCLKHYQASVSPEPPCTYGSAVTPVLGVDSFSLPDGGGADSAFSNPIRFPFGFTWPGTFSLIIEALHTDSPDDLATENPERLISRLATQRHLTVGEEWSQDLHSSGRTDLKYSYRFVCDEHYYGEGCSVFCRPRDDAFGHFTCGERGEKVCNPGWKGPYCTEPICLPGCDEQHGFCDKPGECKCRVGWQGRYCDECIRYPGCLHGTCQQPWQCNCQEGWGGLFCNQDLNYCTHHKPCKNGATCTNTGQGSYTCSCRPGYTGATCELGIDECDPSPCKNGGSCTDLENSYSCTCPPGFYGKICELSAMTCADGPCFNGGRCSDSPDGGYSCRCPVGYSGFNCEKKIDYCSSSPCSNGAKCVDLGDAYLCRCQAGFSGRHCDDNVDDCASSPCANGGTCRDGVNDFSCTCPPGYTGRNCSAPVSRCEHAPCHNGATCHERGHRYVCECARGYGGPNCQFLLPELPPGPAVVDLTEKLEGQGGPFPW
modifications: left off: small tags and cut ends
notes: soluble non-transmembrane form (extracellular domain) of the Notch ligand Delta1
- transactivation of the CBF1-responsive promoter (CBF1-responsive promoter): inhibited the transactivation of the CBF1-responsive promoter
- growth kinetics at high cell density [1]: impaired contact inhibition of growth
- F-actin stress fibers and focal adhesion sites [4]: normal levels of F-actin stress fibers and focal adhesion sites

— patent US20060084599A1, “Compositions, methods and kits relating to notch signaling” (Maine Medical Center, priority 2003, published 2006)
